Numbers after ± are expanded uncertainties.
Experiments:
[1] = Crystal; DTA
[2] = Molar enthalpy of transition or fusion; settings: Crystal; DSC

Row | Normal melting temperature [1] [°C] | Molar enthalpy of transition or fusion [2] [kcal/mol] | SMILES
1 | 0.1 ± 0.7 | 9.29 ± 0.263 | CCCCCCCCCCCC(=O)OCC [ethyl dodecanoate]
2 | 25.08 ± 0.7 | 13.3 ± 0.359 | CCCCCCCCCCCCCCCC(=O)OCC [ethyl hexadecanoate]
3 | 34.2 ± 0.7 | 14.3 ± 0.382 | CCCCCCCCCCCCCCCCCC(=O)OCC [ethyl octadecanoate]
